From ChEMBL document CHEMBL5126521, “Analgesic Opioid Ligand Discovery Based on Nonmorphinan Scaffolds Derived from Natural Sources” (J Med Chem, 2022)
Square brackets hold non-standard residues; d marks the D form. Peptide text beside a SMILES is read from it. βAla = NCCC(=O)O

What was measured:
Rattus norvegicus [1] = test: Antinociceptive activity in rat administered icv; assay type: functional
[2] = target: T1, Kappa-type opioid receptor (Cavia porcellus, UniProt P41144); test: Displacement of [3H]U69593 from guinea pig brain KOP incubated for 90 mins by scintillation counter; assay type: tissue-based
Mu-type opioid receptor [3] = target: Mu-type opioid receptor (Rattus norvegicus, UniProt P33535); test: Displacement of [3H]DAGO from rat brain MOP incubated for 90 mins by scintillation counter; assay type: tissue-based
Mu-type opioid receptor [4] = target: T2, Mu-type opioid receptor (Cavia porcellus, UniProt P97266); test: Antagonist activity at guinea pig ileum MOP; assay type: functional, tissue-based
Mu-type opioid receptor [5] = target: Mu-type opioid receptor (Mus musculus, UniProt P42866); test: Antagonist activity at mouse vas deferns MOP; assay type: functional
Rattus norvegicus [6] = test: Antinociceptive activity in rat at 9 to 120 nmol icv or sc; assay type: functional; settings: dose 9-120 nmol
[7] = Toxicity in rat assessed as inhibition of hypercapnic respiratory response at 9 to 120 nmol icv or sc; settings: in vivo, icv_or_intrathecal, dose 9-120 nmol
[8] = target: Delta-type opioid receptor (Rattus norvegicus, UniProt P33533); test: Displacement of [3H][DAla2]deltorphin-I from rat brain DOP incubated for 90 mins by scintillation counter; assay type: tissue-based
Rattus norvegicus [9] = test: Antinociceptive activity in rat administered iv; assay type: functional
Mus musculus [10] = species on record: Mus musculus; test: Antinociceptive activity in mouse; assay type: functional
Mus musculus [11] = test: Antinociceptive activity in sc dosed visceral pain mouse model; assay type: functional
[12] = target: Delta-type opioid receptor (Mus musculus, UniProt P32300); test: Inhibition of mouse DOP
[13] = Toxicity in sc dosed mouse assessed as antinociceptive activity tolerance by tail flick assay; assay type: organism-based; settings: in vivo
Mus musculus [14] = test: Antinociceptive activity in po dosed mouse; assay type: functional
[15] = target: T3, Delta-type opioid receptor (Homo sapiens, UniProt P41143); test: Binding affinity to DOP (unknown origin)
Mu-type opioid receptor [16] = target: T2, Mu-type opioid receptor; test: Displacement of [3H]DAMGO from guinea pig brain membrane MOP incubated for 1 hr by scintillation counter analysis; assay type: cell membranes
Mus musculus [17] = test: Antinociceptive activity in sc dosed mouse by tail flick assay; assay type: functional
Mus musculus [18] = test: Antinociceptive activity in po dosed mouse by tail flick assay; assay type: functional
[19] = Displacement of [3H]naltrindole from guinea pig brain membrane DOP incubated for 3 hr by scintillation counter analysis; assay type: cell membranes, Cavia porcellus
Mu-type opioid receptor [20] = target: T4, Mu-type opioid receptor (Homo sapiens, UniProt P35372); test: Agonist activity at MOP (unknown origin); assay type: functional
[21] = Toxicity in po dosed mouse assessed as antinociceptive activity tolerance by tail flick assay; assay type: organism-based; settings: in vivo
[22] = target: T1, Kappa-type opioid receptor; test: Displacement of [3H]U69593 from guinea pig brain membrane KOP incubated for 1 hr by scintillation counter analysis; assay type: cell membranes
Mus musculus [23] = test: Antinociceptive activity in sc dosed mouse by hot plate assay; assay type: functional
[24] = target: T5, Kappa-type opioid receptor (Mus musculus, UniProt P33534); test: Inhibition of mouse KOP
Mu-type opioid receptor [25] = target: T4, Mu-type opioid receptor; test: Binding affinity to MOP (unknown origin)
[26] = target: T6, Kappa-type opioid receptor (Homo sapiens, UniProt P41145); test: Inhibition of KOP (unknown origin)
Mus musculus [27] = test: Antinociceptive activity in po dosed mouse by hot plate assay; assay type: functional
[28] = target: T3, Delta-type opioid receptor; test: Inhibition of DOP (unknown origin)
[29] = target: T5, Kappa-type opioid receptor; test: Agonist activity at C57BL6/J mouse brain KOP; assay type: functional, tissue-based
[30] = target: T5, Kappa-type opioid receptor; test: Displacement of [3H]U69593 from C57BL6/J mouse brain KOP; assay type: tissue-based
[31] = target: T5, Kappa-type opioid receptor; test: Agonist activity at C57BL6/J mouse brain KOP by calcium mobilization assay; assay type: functional, tissue-based
Mu-type opioid receptor [32] = target: T4, Mu-type opioid receptor; test: Inhibition of MOP (unknown origin)
Mus musculus [33] = test: Antinociceptive activity in sc dosed mouse assessed as tail flick latency; assay type: functional
Mus musculus [34] = test: Antinociceptive activity in icv dosed mouse assessed as tail flick latency; assay type: functional
[35] = Displacement of [3H]DPDPE from calf frontal cortex membrane Delta-type opioid receptor by competitive binding assay; assay type: cell membranes, Bos taurus
Mu-type opioid receptor [36] = target: Mu-type opioid receptor (Bos taurus, UniProt P79350); test: Displacement of [3H]DAMGO from calf thalamus membrane MOP by competitive binding assay; assay type: cell membranes
[37] = target: T5, Kappa-type opioid receptor; test: Displacement of [3H]U69593 from mouse brain membrane KOP by competitive binding assay; assay type: cell membranes
Mus musculus [38] = test: Antinociceptive activity in mouse at 3.2 to 32 pmol IT or sc; assay type: functional; settings: dose 3.2-32 pmol
[39] = Toxicity in mouse assessed as inhibition of gastrointestinal transit at 3.2 to 32 pmol IT or sc by charcoal meal test; assay type: organism-based; settings: in vivo, other, dose 3.2-32 pmol
[40] = target: T6, Kappa-type opioid receptor; test: Agonist activity at KOP (unknown origin); assay type: functional
[41] = Toxicity in ip dosed mouse assessed as antinociceptive tolerance; assay type: organism-based; settings: in vivo
Mus musculus [42] = test: Antinociceptive activity in ip dosed mouse assessed as tail flick latency; assay type: functional
Mus musculus [43] = test: Antinociceptive activity in sc dosed mouse; assay type: functional
Mus musculus [44] = test: Antinociceptive activity in po dosed visceral pain mouse model; assay type: functional
[45] = Toxicity in po dosed mouse assessed as antinociceptive activity tolerance by hot plate assay; assay type: organism-based; settings: in vivo
Mus musculus [46] = test: Antinociceptive activity in ip dosed C57BL/6J mouse assessed as tail withdrawal latency from warm water; assay type: functional
Mu-type opioid receptor [47] = target: T4, Mu-type opioid receptor; test: Agonist activity at human MOP stably expressed in CHO-K1 cells assessed as inhibition of forskolin-induced cAMP accumulation; assay type: functional, cell-based
[48] = target: T6, Kappa-type opioid receptor; test: Agonist activity at KOP (unknown origin) assessed as inhibition of forskolin-induced cAMP accumulation; assay type: functional

Work on C[C@@H](NC(=O)[C@@H](N)Cc1ccc(O)cc1)C(=O)N[C@@H](Cc1ccccc1)C(=O)NCC(=O)N[C@@H](Cc1ccc(O)cc1)C(=O)N1CCC[C@H]1C(=O)N[C@@H](CCCCN)C(N)=O yielded an ED50 (Rattus norvegicus [1]) of 0.03 pmol, a Ki [2] of 617 nM and a Ki (Mu-type opioid receptor [3]) of 0.09 nM. For the same compound, the IC50 (Mu-type opioid receptor [4]) was 1.7 nM, the IC50 (Mu-type opioid receptor [5]) was 52 nM and the ED50 (Rattus norvegicus [6]) was 21.5 µmol/kg. For the same compound, the Activity [7] was 45.9 µmol/kg, the Ki [8] was 1100 nM and the ED50 (Rattus norvegicus [9]) was 0.06 µmol/kg. It also gave an ED50 (Mus musculus [10]) of 0.22 µmol/kg.
CC[C@@H]1CN2CC[C@]3(O)c4c(cccc4OC)NC3[C@@H]2C[C@@H]1/C(=C\OC)C(=O)OC (stereo partly drawn) gave an ED50 (Mus musculus [11]) of 0.15 mg/kg, an IC50 [12] of 10000 nM and an ED50 [13] of 1.19 mg/kg. For the same compound, the ED50 (Mus musculus [14]) was 1.1 mg/kg, the Ki [15] was 219 nM and the Ki (Mu-type opioid receptor [16]) was 11 nM. For the same compound, the ED50 (Mus musculus [17]) was 0.8 mg/kg, the ED50 (Mus musculus [18]) was 4.4 mg/kg and the Ki [19] was 96 nM. It also gave an EC50 (Mu-type opioid receptor [20]) of 34.5 nM, an ED50 [21] of 7.5 mg/kg and a Ki [22] of 85 nM. It also gave an ED50 (Mus musculus [23]) of 0.93 mg/kg, an IC50 [24] of 7900 nM and a Ki (Mu-type opioid receptor [25]) of 47 nM. For the same compound, the IC50 [26] was 691 nM, the ED50 (Mus musculus [27]) was 2.2 mg/kg and the IC50 [28] was 2520 nM.
Compound CCC(=O)O[C@H]1C[C@@H](C(=O)OC)[C@]2(C)CC[C@H]3C(=O)O[C@H](c4ccoc4)C[C@]3(C)[C@H]2C1=O has an EC50 [29] of 17 nM, a Ki [30] of 32.6 nM and an EC50 [31] of 102 nM.
With C=C[C@H]1CN2CCc3c([nH]c4cccc(OC)c34)[C@@H]2C[C@@H]1/C(=C\OC)C(=O)OC the Ki [15] was over 10000 nM, the IC50 (Mu-type opioid receptor [32]) was 2200 nM and the IC50 [26] was 10000 nM. It also gave an IC50 [28] of over 10000 nM.
In the case of COC(=O)[C@@H]1C[C@H](OC(C)=O)C(=O)[C@H]2[C@@]1(C)CC[C@H]1C(=O)O[C@H](c3ccoc3)C[C@]21C [SALVINORIN A], the ED50 (Mus musculus [33]) is reported as 2.1 mg/kg and the ED50 (Mus musculus [34]) is reported as 1.5 µg.
For Cc1cc(O)cc(C)c1C[C@H](N)C(=O)N[C@H](CCCNC(=N)N)C(=O)N[C@@H](Cc1ccccc1)C(=O)N[C@@H](CCCCN)C(N)=O, the Ki [35] was 116 nM, the Ki (Mu-type opioid receptor [36]) was 0.14 nM and the Ki [37] was 11.5 nM. The ED50 (Mus musculus [38]) was 0.0655 mg/kg and the ED50 [39] was 0.006 mg/kg.
For CC[C@@H]1CN2CCc3c([nH]c4cccc(OC)c34)[C@@H]2C[C@@H]1/C(=C\OC)C(=O)OC, the Ki [15] was over 10000 nM, the EC50 [40] was 8500 nM and the ED50 (Mus musculus [18]) was 2.1 mg/kg. The IC50 [28] was over 10000 nM.
With COC(=O)[C@@H]1C=C(OC(=O)c2ccccc2)C(=O)[C@H]2[C@@]1(C)CC[C@H]1C(=O)O[C@H](c3ccoc3)C[C@]21C the ED50 [41] was 7.9 mg/kg and the ED50 (Mus musculus [42]) was 5 mg/kg.
With CC[C@@H]1CN2CC[C@@]34OCCO[C@@]3(Nc3ccc(F)c(OC)c34)[C@@H]2C[C@@H]1/C(=C\OC)C(=O)OC the ED50 (Mus musculus [43]) was 0.1 mg/kg, the Ki (Mu-type opioid receptor [16]) was 7.3 nM and the ED50 (Mus musculus [17]) was 0.6 mg/kg. The ED50 (Mus musculus [18]) was 2.8 mg/kg, the Ki [19] was 350 nM and the ED50 [21] was 11.1 mg/kg. The Ki [22] was 18 nM, the ED50 (Mus musculus [44]) was 0.6 mg/kg and the ED50 (Mus musculus [23]) was 0.7 mg/kg. For the same compound, the ED50 (Mus musculus [27]) was 3 mg/kg and the ED50 [45] was 1.3 mg/kg.
With O=C1NCCC(=O)N2CCC[C@@H]2C(=O)N[C@@H](Cc2ccccc2)C(=O)N[C@H]1Cc1c[nH]c2ccccc12 (cyclo(FW[βAla][dP])) the ED50 (Mus musculus [46]) was 0.64 mg/kg.
COC(=O)[C@@H]1C[C@H](OC(=O)c2ccc(CO)cc2)C(=O)[C@H]2[C@@]1(C)CC[C@H]1C(=O)O[C@H](c3ccoc3)C[C@]21C showed an EC50 (Mu-type opioid receptor [47]) of 0.03 nM, an ED50 (Mus musculus [42]) of 2.35 mg/kg and an EC50 [48] of over 10000 nM.
